Reference: patent US5776892A, “Anti-inflammatory peptides” (Curative Health Services, Inc., priority 1994, dated 1998)
No end group written: not given here.

Tested on: arachidonic acid induced inflammation in mouse ear
Assay: Mouse ear model, arachidonic acid (AA) induced inflammation, ear thickness
Type: in vivo
Description: The anti-inflammatory properties of CT-112 (SEQ. ID NO: 1) were assessed using a standardized assay for anti-inflammatory activity, i.e., the mouse ear model in which arachidonic acid (AA) is used to induce an inflammatory reaction (Young et al., 1984, J. Invest. Dermatol. 82:367-371; Doherty, et al., 1988, J. Invest. Dermatol. 91:298-302).
Female mice (C57BL/6UAF, Charles River Breeding Laboratories, approximately 15-18 g) were obtained and acclimated for 2 weeks prior to use. The animals were approximately 14 weeks old at the start of the study.
To prepare minipumps for implantation, CT-112 (SEQ. ID NO: 1) was dissolved in PBS. The material was loaded into Alzet minipumps set to deliver 0.05 (5 animals), 0.1 (10 animals), 1 (10 animals), or 2.5 (5 animals) mg of CT-112 (SEQ. ID NO: 1) per animal per day. Minipumps for implantation into control animals contained only PBS. As a positive control, one set of 10 mice received 100 mg/kg of phenidone, a potent 5-lipoxygenase inhibitor which acts as an anti-inflammatory agent, 15 min prior to challenge with AA.
For subcutaneous implantation of minipumps, animals were anesthetized with Ketamine/Xylazine. The Ketamine (Aveco Lot #440140) was injected at 80 mg/kg and the Xylazine (Rugby Laboratories Lot #26040-B) at 16 mg/kg and the Alzet pumps were implanted subcutaneously in the dorsothoracic area. Animals were allowed to recover and then housed and given food and water ad libitum for 5 days.
On the sixth day following pump implantation, 0.01 ml of AA was applied to the inner and outer surfaces of the right ear by means of an automatic microliter pipette. One hr following AA application, the mice were sacrificed and ear thickness was measured with a Mitutoyo No. 7300 Gauge Caliper. The left ears were also measured as an internal control.
Mice were implanted with Alzet mini-pumps set to deliver 60 mg/kg/day for either 7, 3, or 1 days. A separate group of 5 mice received 3 intraperitoneal injections of CT-112 (60 mg/kg/injection) at 24, 1 and 0.25 hr prior to AA challenge. CT-112 (SEQ. ID NO: 1) was prepared for injection by dissolving the compound in Dulbecco's PBS to give a final CT-112 (SEQ. ID NO: 1) concentration of 5 mg/ml. The control mice were implanted with Alzet minipumps that delivered PBS for 7 days. The AA challenge was the same as described supra in Example 7.
Administration of CT-112 (SEQ. ID NO: 1) (60 mg/kg/injection) via multiple intraperitoneal injections was performed at the following times prior to AA challenge:
In addition, the effect of a single administration of CT-112 (SEQ. ID NO: 1) (60 mg/kg) by intraperitoneal injection was performed at either 1 or 3 hr prior to AA challenge. Control mice had Alzet minipumps implanted to deliver PBS for 7 days prior to AA challenge. The AA challenge was the same as described supra in Example 7. The results of the multiple dosing regimens and the 1 hr and 3 hr single dosing regimens were compared to the anti-inflammatory activity of CT-112 (SEQ. ID NO: 1) delivered via Alzet minipump set to deliver 60 mg/kg/day for 7 days using 5 animals per treatment.
In a separate experiment, the effect of multiple intraperitoneal injections of CT-112 (SEQ. ID NO: 1) at either 6, 3, 1 and 0.25 hr, or 16, 3, 1 and 0.25 hr prior to AA challenge was assessed. The results of both multi-dosing regimens were compared to both phenidone (100 mg/kg administered 15 min prior to AA challenge) and CT-112 (SEQ. ID NO: 1) administered via Alzet mini-pump (60 mg/kg/day for 7 days). For this latter study, the number of animals receiving the single injection of CT-112 (SEQ. ID NO: 1) was increased from 5 to 10.
Administration to mice of CT-112 (SEQ. ID NO: 1) (60 mg/kg/injection) via multiple subcutaneous injections prior to AA challenge was performed at:
In addition, other mice received only a single subcutaneous injection of CT-112 (SEQ. ID NO: 1) (60 mg/kg) at either 3 or 1 hr prior to AA challenge. […]

Molecule	% Reduction of Ear Swelling (Table I, phenidone 100 mg/kg, 15 min prior to AA) [%]	% Inhibition (Table XII, 60 mg/kg/day via Alzet pump for 24 hr) [%]	Thickness Difference (Left-Right) (Table XIII, 60 mg/kg/day via Alzet pump for 24 hr) [in]
O=C1CCN(c2ccccc2)N1 [Phenidone, reference compound]	84.1		
TTSHVKPQ [CT-135, ID; NO; 20]		73	0.00178 ± 0.00073
